From the NIST ThermoML archive (doi:10.1021/je301301j)

Experiment: xn = mol fraction of the nth substance listed
Conditions: Liquid; for mass density: Vibrating tube method; for viscosity: Concentric cylinders viscometry

C=CCCCC [hex-1-ene] + CCCCO
Conditions | mass density, 273.15 K [kg/m3] | mass density, 293.15 K [kg/m3] | mass density, 313.15 K [kg/m3] | mass density, 333.15 K [kg/m3] | viscosity, 293.15 K [mPa·s] | viscosity, 303.15 K [mPa·s] | viscosity, 313.15 K [mPa·s]
100 kPa, x1 = 0.1001 | 808.1 | 792.4 | 776.5 | 759.7 | – | – | –
100 kPa, x1 = 0.3999 | 764.1 | 747 | 729.5 | 711.1 | – | – | –
100 kPa, x1 = 0.5018 | 751.4 | 734 | 716 | 697.2 | – | – | –
100 kPa, x1 = 0.5997 | 739 | 721.2 | 702.9 | 683.7 | – | – | –
100 kPa, x1 = 0.9 | 700.4 | 681.8 | 662.7 | 642.8 | – | – | –
100 kPa, x1 = 1 | 691.5 | 672.8 | 653.8 | 634 | – | – | –
100 kPa, x2 = 0 | – | – | – | – | 0.28 | 0.257 | 0.236
100 kPa, x2 = 0.1001 | – | – | – | – | 0.316 | 0.283 | 0.255
100 kPa, x2 = 0.2 | – | – | – | – | 0.355 | 0.316 | 0.285
100 kPa, x2 = 0.3002 | – | – | – | – | 0.422 | 0.369 | 0.322
100 kPa, x2 = 0.3999 | – | – | – | – | 0.522 | 0.448 | 0.386
100 kPa, x2 = 0.5018 | – | – | – | – | 0.669 | 0.565 | 0.475
100 kPa, x2 = 0.5997 | – | – | – | – | 0.86 | 0.703 | 0.595
100 kPa, x2 = 0.7002 | – | – | – | – | 1.159 | 0.938 | 0.763
100 kPa, x2 = 0.7999 | – | – | – | – | 1.558 | 1.24 | 0.997
100 kPa, x2 = 0.9 | – | – | – | – | 2.125 | 1.667 | 1.327
1000 kPa, x1 = 0.1001 | 808.5 | 793.1 | 777.2 | 760.6 | – | – | –
1000 kPa, x1 = 0.3999 | 764.6 | 747.7 | 730.4 | 712.2 | – | – | –
1000 kPa, x1 = 0.5018 | 751.9 | 734.8 | 716.9 | 698.3 | – | – | –
1000 kPa, x1 = 0.5997 | 739.5 | 722 | 703.9 | 684.9 | – | – | –
1000 kPa, x1 = 0.9 | 701 | 682.7 | 663.9 | 644.1 | – | – | –
1000 kPa, x1 = 1 | 692.1 | 673.8 | 654.9 | 635.4 | – | – | –
2000 kPa, x1 = 0.1001 | 809.3 | 793.8 | 778.1 | 761.6 | – | – | –
2000 kPa, x1 = 0.3999 | 765.4 | 748.6 | 731.4 | 713.4 | – | – | –
2000 kPa, x1 = 0.5018 | 752.7 | 735.7 | 718 | 699.6 | – | – | –
2000 kPa, x1 = 0.5997 | 740.4 | 723 | 705 | 686.3 | – | – | –
2000 kPa, x1 = 0.9 | 701.9 | 683.8 | 665.1 | 645.6 | – | – | –
2000 kPa, x1 = 1 | 693 | 674.9 | 656.2 | 636.9 | – | – | –
5000 kPa, x1 = 0.1001 | 811.3 | 796.2 | 780.6 | 764.5 | – | – | –
5000 kPa, x1 = 0.3999 | 767.7 | 751.2 | 734.3 | 716.8 | – | – | –
5000 kPa, x1 = 0.5018 | 755.1 | 738.4 | 721.1 | 703.1 | – | – | –
5000 kPa, x1 = 0.5997 | 742.8 | 725.8 | 708.2 | 690 | – | – | –
5000 kPa, x1 = 0.9 | 704.6 | 686.9 | 668.7 | 649.9 | – | – | –
5000 kPa, x1 = 1 | 695.8 | 678 | 659.9 | 641.3 | – | – | –
10000 kPa, x1 = 0.1001 | 814.6 | 799.7 | 784.6 | 768.9 | – | – | –
10000 kPa, x1 = 0.3999 | 771.4 | 755.3 | 739 | 722 | – | – | –
10000 kPa, x1 = 0.5018 | 758.9 | 742.7 | 725.9 | 708.6 | – | – | –
10000 kPa, x1 = 0.5997 | 746.7 | 730.2 | 713.2 | 695.7 | – | – | –
10000 kPa, x1 = 0.9 | 708.8 | 691.7 | 674.2 | 656.3 | – | – | –
10000 kPa, x1 = 1 | 700 | 682.9 | 665.5 | 647.8 | – | – | –
15000 kPa, x1 = 0.1001 | 817.8 | 803.2 | 788.4 | 773.1 | – | – | –
15000 kPa, x1 = 0.3999 | 774.9 | 759.2 | 743.3 | 727.1 | – | – | –
15000 kPa, x1 = 0.5018 | 762.5 | 746.7 | 730.5 | 713.8 | – | – | –
15000 kPa, x1 = 0.5997 | 750.4 | 734.4 | 718 | 701.1 | – | – | –
15000 kPa, x1 = 0.9 | 712.8 | 696.2 | 679.5 | 662.2 | – | – | –
15000 kPa, x1 = 1 | 704 | 687.5 | 670.8 | 653.9 | – | – | –
20000 kPa, x1 = 0.1001 | 820.8 | 806.5 | 792.1 | 777.2 | – | – | –
20000 kPa, x1 = 0.3999 | 778.2 | 762.9 | 747.5 | 731.6 | – | – | –
20000 kPa, x1 = 0.5018 | 766 | 750.5 | 734.8 | 718.7 | – | – | –
20000 kPa, x1 = 0.5997 | 754 | 738.3 | 722.4 | 706.1 | – | – | –
20000 kPa, x1 = 0.9 | 716.5 | 700.4 | 684.2 | 667.8 | – | – | –
20000 kPa, x1 = 1 | 707.8 | 691.8 | 675.7 | 659.5 | – | – | –
30000 kPa, x1 = 0.1001 | 826.5 | 812.8 | 799 | 784.7 | – | – | –
30000 kPa, x1 = 0.3999 | 784.4 | 769.9 | 755.2 | 740.3 | – | – | –
30000 kPa, x1 = 0.5018 | 772.4 | 757.7 | 742.7 | 728.5 | – | – | –
30000 kPa, x1 = 0.5997 | 760.6 | 745.7 | 730.6 | 715.4 | – | – | –
30000 kPa, x1 = 0.9 | 723.6 | 708.3 | 693.1 | 677.7 | – | – | –
30000 kPa, x1 = 1 | 715 | 699.8 | 684.6 | 669.5 | – | – | –
40000 kPa, x1 = 0.1001 | 831.9 | 818.6 | 805.3 | 791.6 | – | – | –
40000 kPa, x1 = 0.3999 | 790.2 | 776.3 | 762.2 | 748 | – | – | –
40000 kPa, x1 = 0.5018 | 778.4 | 764.2 | 749.9 | 736.5 | – | – | –
40000 kPa, x1 = 0.5997 | 766.8 | 752.4 | 738 | 723.5 | – | – | –
40000 kPa, x1 = 0.9 | 730.1 | 715.5 | 700.9 | 686.5 | – | – | –
40000 kPa, x1 = 1 | 721.6 | 707 | 692.6 | 678.4 | – | – | –
50000 kPa, x1 = 0.1001 | 837 | 824.1 | 811.1 | 798 | – | – | –
50000 kPa, x1 = 0.3999 | 795.7 | 782.2 | 768.7 | 755.2 | – | – | –
50000 kPa, x1 = 0.5018 | 783.9 | 770.2 | 756.5 | 743.8 | – | – | –
50000 kPa, x1 = 0.5997 | 772.3 | 758.6 | 744.7 | 731 | – | – | –
50000 kPa, x1 = 0.9 | 736.1 | 722.1 | 708.2 | 694.4 | – | – | –
50000 kPa, x1 = 1 | 727.6 | 713.7 | 699.9 | 686.3 | – | – | –
60000 kPa, x1 = 1 | 733.2 | 719.9 | 706.9 | 693.7 | – | – | –
70000 kPa, x1 = 1 | 738.7 | 725.8 | 713 | 700.5 | – | – | –
